# Test results taken from ChEMBL document CHEMBL4507275, “Data for DCP probe BI-2545” (2021).
# Key:
# [1] = tested on: Tyrosine-protein kinase ABL1 (Homo sapiens), P00519 [M351T]; conditions: Compound concentration 1000.0 nM
# [2] = biological target: Activin receptor type-2B (Homo sapiens) (UniProt Q13705); conditions: Compound concentration 1000.0 nM
# [3] = biological target: Atypical kinase COQ8B, mitochondrial (Homo sapiens) (UniProt Q96D53); conditions: Compound concentration 1000.0 nM
# [4] = biological target: NUAK family SNF1-like kinase 1 (Homo sapiens) (UniProt O60285); conditions: Compound concentration 1000.0 nM
# [5] = biological target: Bone morphogenetic protein receptor type-1A (Homo sapiens) (UniProt P36894); conditions: Compound concentration 1000.0 nM
# [6] = biological target: Serine/threonine-protein kinase B-raf (Homo sapiens) (UniProt P15056); conditions: Compound concentration 1000.0 nM
# [7] = biological target: Calcium/calmodulin-dependent protein kinase type II subunit gamma (Homo sapiens) (UniProt Q13555); conditions: Compound concentration 1000.0 nM
# [8] = biological target: Macrophage colony-stimulating factor 1 receptor (Homo sapiens) (UniProt P07333); conditions: Compound concentration 1000.0 nM
# [9] = tested on: Epidermal growth factor receptor (Homo sapiens), P00533 [UNDEFINED MUTATION]; conditions: Compound concentration 1000.0 nM
# [10] = tested on: Epidermal growth factor receptor (Homo sapiens), P00533 [L858R]; conditions: Compound concentration 1000.0 nM
# [11] = biological target: Ephrin type-B receptor 6 (Homo sapiens) (UniProt O15197); conditions: Compound concentration 1000.0 nM
# [12] = biological target: Serine/threonine-protein kinase/endoribonuclease IRE1 (Homo sapiens) (UniProt O75460); conditions: Compound concentration 1000.0 nM
# [13] = biological target: Tyrosine-protein kinase Fes/Fps (Homo sapiens) (UniProt P07332); conditions: Compound concentration 1000.0 nM
# [14] = biological target: Receptor-type tyrosine-protein kinase FLT3 (Homo sapiens) (UniProt P36888); conditions: Compound concentration 1000.0 nM
# [15] = biological target: Homeodomain-interacting protein kinase 3 (Homo sapiens) (UniProt Q9H422); conditions: Compound concentration 1000.0 nM
# [16] = biological target: Insulin-like growth factor 1 receptor (Homo sapiens) (UniProt P08069); conditions: Compound concentration 1000.0 nM
# [17] = biological target: Tyrosine-protein kinase JAK1 (Homo sapiens) (UniProt P23458); conditions: Compound concentration 1000.0 nM
# [18] = biological target: Tyrosine-protein kinase JAK2 (Homo sapiens) (UniProt O60674); conditions: Compound concentration 1000.0 nM
# [19] = tested on: Mast/stem cell growth factor receptor Kit (Homo sapiens), P10721 [D816H]; conditions: Compound concentration 1000.0 nM
# [20] = biological target: Mast/stem cell growth factor receptor Kit (Homo sapiens) (UniProt P10721); conditions: Compound concentration 1000.0 nM
# [21] = biological target: Tyrosine-protein kinase Lyn (Homo sapiens) (UniProt P07948); conditions: Compound concentration 1000.0 nM
# [22] = biological target: MAP/microtubule affinity-regulating kinase 3 (Homo sapiens) (UniProt P27448); conditions: Compound concentration 1000.0 nM
# [23] = biological target: Maternal embryonic leucine zipper kinase (Homo sapiens) (UniProt Q14680); conditions: Compound concentration 1000.0 nM
# [24] = biological target: Serine/threonine-protein kinase 38 (Homo sapiens) (UniProt Q15208); conditions: Compound concentration 1000.0 nM
# [25] = biological target: Serine/threonine-protein kinase Nek1 (Homo sapiens) (UniProt Q96PY6); conditions: Compound concentration 1000.0 nM
# [26] = biological target: Serine/threonine-protein kinase Nek11 (Homo sapiens) (UniProt Q8NG66); conditions: Compound concentration 1000.0 nM
# [27] = biological target: Mitogen-activated protein kinase 14 (Homo sapiens) (UniProt Q16539); conditions: Compound concentration 1000.0 nM
# [28] = biological target: Cyclin-dependent kinase 15 (Homo sapiens) (UniProt Q96Q40); conditions: Compound concentration 1000.0 nM
# [29] = biological target: Phosphorylase b kinase gamma catalytic chain, skeletal muscle/heart isoform (Homo sapiens) (UniProt Q16816); conditions: Compound concentration 1000.0 nM
# [30] = biological target: Phosphatidylinositol 4-phosphate 5-kinase type-1 alpha (Homo sapiens) (UniProt Q99755); conditions: Compound concentration 1000.0 nM
# [31] = biological target: Serine/threonine-protein kinase PknB (Mycobacterium tuberculosis) (UniProt P9WI81); conditions: Compound concentration 1000.0 nM
# [32] = biological target: Serine/threonine-protein kinase PLK2 (Homo sapiens) (UniProt Q9NYY3); conditions: Compound concentration 1000.0 nM
# [33] = biological target: Interferon-induced, double-stranded RNA-activated protein kinase (Homo sapiens) (UniProt P19525); conditions: Compound concentration 1000.0 nM
# [34] = biological target: Proto-oncogene tyrosine-protein kinase receptor Ret (Homo sapiens) (UniProt P07949); conditions: Compound concentration 1000.0 nM
# [35] = biological target: Tyrosine-protein kinase Srms (Homo sapiens) (UniProt Q9H3Y6); conditions: Compound concentration 1000.0 nM
# [36] = biological target: SRSF protein kinase 2 (Homo sapiens) (UniProt P78362); conditions: Compound concentration 1000.0 nM
# [37] = biological target: Serine/threonine-protein kinase TBK1 (Homo sapiens) (UniProt Q9UHD2); conditions: Compound concentration 1000.0 nM
# [38] = biological target: Dual specificity testis-specific protein kinase 1 (Homo sapiens) (UniProt Q15569); conditions: Compound concentration 1000.0 nM
# [39] = biological target: Wee1-like protein kinase (Homo sapiens) (UniProt P30291); conditions: Compound concentration 1000.0 nM
# [40] = biological target: Wee1-like protein kinase 2 (Homo sapiens) (UniProt P0C1S8); conditions: Compound concentration 1000.0 nM
# [41] = biological target: D(3) dopamine receptor (Homo sapiens) (UniProt P35462); conditions: Compound concentration 10.0 uM
# [42] = biological target: D(1B) dopamine receptor (Homo sapiens) (UniProt P21918); conditions: Compound concentration 10.0 uM
# [43] = biological target: Sodium-dependent serotonin transporter (Homo sapiens) (UniProt P31645); conditions: Compound concentration 10.0 uM
# [44] = biological target: Sodium-dependent noradrenaline transporter (Homo sapiens) (UniProt P23975); conditions: Compound concentration 10.0 uM
# [45] = biological target: Muscarinic acetylcholine receptor M4 (Homo sapiens) (UniProt P08173); conditions: Compound concentration 10.0 uM
# Phosphorylase b kinase gamma catalytic chain, skeletal muscle/heart isoform (Homo sapiens), sequence (Q16816 whole entry, looked up, canonical isoform): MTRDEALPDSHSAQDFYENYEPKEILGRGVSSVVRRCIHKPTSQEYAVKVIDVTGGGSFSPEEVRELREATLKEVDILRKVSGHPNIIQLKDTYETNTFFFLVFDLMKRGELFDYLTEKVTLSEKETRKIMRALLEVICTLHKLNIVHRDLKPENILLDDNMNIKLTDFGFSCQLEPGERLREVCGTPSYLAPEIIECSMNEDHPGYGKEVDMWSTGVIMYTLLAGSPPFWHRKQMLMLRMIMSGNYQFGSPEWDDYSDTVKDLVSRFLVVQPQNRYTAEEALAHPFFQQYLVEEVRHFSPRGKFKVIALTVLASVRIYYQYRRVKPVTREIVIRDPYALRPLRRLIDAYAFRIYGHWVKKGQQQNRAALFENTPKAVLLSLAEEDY
# Sodium-dependent serotonin transporter (Homo sapiens), sequence (P31645 whole entry, looked up): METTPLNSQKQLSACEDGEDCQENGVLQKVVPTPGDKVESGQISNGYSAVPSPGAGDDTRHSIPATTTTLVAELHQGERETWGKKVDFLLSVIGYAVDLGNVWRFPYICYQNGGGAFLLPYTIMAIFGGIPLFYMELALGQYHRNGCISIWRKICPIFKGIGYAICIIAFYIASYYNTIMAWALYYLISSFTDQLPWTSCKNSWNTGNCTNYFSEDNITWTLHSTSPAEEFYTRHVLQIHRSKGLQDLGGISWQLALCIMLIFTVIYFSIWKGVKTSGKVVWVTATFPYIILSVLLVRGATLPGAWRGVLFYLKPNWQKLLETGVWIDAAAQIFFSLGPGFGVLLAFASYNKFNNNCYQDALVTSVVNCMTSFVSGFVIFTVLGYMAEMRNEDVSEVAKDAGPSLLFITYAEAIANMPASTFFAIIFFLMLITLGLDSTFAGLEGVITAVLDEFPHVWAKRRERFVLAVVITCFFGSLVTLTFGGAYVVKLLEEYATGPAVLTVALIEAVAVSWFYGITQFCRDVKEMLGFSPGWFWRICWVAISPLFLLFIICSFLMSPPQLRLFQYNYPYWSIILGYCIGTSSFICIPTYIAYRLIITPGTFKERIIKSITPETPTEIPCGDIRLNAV
# NUAK family SNF1-like kinase 1 (Homo sapiens), sequence (O60285 whole entry): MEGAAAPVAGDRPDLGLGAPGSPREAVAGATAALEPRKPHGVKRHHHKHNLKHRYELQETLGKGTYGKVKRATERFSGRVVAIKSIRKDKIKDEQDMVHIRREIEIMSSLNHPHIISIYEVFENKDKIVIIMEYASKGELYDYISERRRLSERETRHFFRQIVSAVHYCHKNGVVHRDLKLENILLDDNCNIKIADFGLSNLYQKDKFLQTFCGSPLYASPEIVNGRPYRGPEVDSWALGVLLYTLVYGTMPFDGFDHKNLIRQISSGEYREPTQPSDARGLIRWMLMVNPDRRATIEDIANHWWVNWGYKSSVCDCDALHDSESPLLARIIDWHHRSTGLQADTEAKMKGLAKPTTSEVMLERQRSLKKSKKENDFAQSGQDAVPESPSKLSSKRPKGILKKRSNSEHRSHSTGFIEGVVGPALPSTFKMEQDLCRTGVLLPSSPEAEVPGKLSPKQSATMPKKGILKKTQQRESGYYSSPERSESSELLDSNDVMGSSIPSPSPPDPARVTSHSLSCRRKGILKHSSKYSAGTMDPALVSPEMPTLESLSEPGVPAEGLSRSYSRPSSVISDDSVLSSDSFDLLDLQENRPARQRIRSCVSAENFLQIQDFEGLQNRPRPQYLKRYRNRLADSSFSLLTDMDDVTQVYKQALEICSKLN
# Mast/stem cell growth factor receptor Kit (Homo sapiens), sequence (P10721 whole entry): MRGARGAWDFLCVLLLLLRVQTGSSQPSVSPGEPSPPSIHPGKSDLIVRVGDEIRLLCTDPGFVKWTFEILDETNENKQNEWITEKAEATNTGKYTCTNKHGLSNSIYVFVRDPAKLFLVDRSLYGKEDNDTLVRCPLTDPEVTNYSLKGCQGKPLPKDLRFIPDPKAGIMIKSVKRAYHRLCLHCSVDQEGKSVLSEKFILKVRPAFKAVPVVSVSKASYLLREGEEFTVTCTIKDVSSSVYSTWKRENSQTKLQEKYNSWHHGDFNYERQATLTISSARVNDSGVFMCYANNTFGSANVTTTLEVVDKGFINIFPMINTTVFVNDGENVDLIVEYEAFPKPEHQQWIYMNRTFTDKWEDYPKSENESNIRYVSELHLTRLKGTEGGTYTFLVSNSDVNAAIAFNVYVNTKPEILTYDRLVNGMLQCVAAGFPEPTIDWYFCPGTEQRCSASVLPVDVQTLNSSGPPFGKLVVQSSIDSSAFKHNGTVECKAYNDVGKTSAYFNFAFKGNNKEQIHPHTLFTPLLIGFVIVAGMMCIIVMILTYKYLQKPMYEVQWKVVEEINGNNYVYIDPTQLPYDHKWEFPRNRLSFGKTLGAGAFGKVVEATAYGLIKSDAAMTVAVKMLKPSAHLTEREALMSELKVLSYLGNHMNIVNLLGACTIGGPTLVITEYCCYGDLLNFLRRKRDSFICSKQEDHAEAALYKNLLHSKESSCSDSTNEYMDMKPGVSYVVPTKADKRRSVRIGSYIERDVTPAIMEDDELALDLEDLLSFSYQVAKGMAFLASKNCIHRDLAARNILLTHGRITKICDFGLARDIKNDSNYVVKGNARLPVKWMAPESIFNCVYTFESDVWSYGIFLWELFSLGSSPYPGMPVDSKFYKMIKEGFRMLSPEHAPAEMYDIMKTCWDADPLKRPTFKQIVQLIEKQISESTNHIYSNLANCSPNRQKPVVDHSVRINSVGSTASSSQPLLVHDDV
# Phosphatidylinositol 4-phosphate 5-kinase type-1 alpha (Homo sapiens), sequence (Q99755 whole entry): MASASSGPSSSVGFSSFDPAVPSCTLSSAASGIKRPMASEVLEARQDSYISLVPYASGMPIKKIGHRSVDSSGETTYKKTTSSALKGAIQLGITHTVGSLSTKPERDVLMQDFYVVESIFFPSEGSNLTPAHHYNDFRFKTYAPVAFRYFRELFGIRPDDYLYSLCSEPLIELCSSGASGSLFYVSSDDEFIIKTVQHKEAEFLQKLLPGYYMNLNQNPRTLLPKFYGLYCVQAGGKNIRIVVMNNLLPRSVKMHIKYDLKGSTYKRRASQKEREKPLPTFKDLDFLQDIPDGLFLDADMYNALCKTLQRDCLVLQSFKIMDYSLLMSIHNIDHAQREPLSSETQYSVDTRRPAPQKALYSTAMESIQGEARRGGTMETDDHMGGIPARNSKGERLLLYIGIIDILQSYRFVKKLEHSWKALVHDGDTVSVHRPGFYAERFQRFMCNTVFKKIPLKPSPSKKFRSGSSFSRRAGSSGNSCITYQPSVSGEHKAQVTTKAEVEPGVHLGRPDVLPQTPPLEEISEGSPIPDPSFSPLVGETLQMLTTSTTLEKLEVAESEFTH
# Tyrosine-protein kinase Srms (Homo sapiens), sequence (Q9H3Y6 whole entry): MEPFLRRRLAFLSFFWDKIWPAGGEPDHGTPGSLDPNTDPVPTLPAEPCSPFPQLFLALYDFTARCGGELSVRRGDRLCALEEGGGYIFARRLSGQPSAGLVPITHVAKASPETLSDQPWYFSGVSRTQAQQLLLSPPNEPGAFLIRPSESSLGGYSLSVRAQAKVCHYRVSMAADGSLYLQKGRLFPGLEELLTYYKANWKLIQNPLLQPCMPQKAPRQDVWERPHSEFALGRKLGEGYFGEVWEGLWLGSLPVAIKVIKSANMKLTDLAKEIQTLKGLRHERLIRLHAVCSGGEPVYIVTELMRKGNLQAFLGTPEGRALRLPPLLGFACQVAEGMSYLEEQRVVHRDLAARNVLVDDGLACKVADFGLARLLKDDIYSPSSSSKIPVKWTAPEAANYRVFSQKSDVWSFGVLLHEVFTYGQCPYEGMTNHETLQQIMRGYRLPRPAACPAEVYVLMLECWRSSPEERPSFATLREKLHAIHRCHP
# Atypical kinase COQ8B, mitochondrial (Homo sapiens), sequence (Q96D53 whole entry): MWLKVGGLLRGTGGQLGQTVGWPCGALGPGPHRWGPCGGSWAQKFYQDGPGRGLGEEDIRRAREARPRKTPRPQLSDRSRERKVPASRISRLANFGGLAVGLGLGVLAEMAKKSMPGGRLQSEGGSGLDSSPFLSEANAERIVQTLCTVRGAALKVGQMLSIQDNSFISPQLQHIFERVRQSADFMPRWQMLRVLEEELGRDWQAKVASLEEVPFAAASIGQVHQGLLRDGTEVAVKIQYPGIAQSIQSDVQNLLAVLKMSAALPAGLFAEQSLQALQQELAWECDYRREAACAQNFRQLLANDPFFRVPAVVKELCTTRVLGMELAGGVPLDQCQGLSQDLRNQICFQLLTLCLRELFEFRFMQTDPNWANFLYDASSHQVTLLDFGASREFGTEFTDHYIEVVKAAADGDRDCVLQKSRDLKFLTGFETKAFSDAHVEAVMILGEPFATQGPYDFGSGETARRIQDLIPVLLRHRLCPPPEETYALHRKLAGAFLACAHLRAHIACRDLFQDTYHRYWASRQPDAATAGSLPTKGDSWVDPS
# Serine/threonine-protein kinase PknB (Mycobacterium tuberculosis), sequence (P9WI81 whole entry): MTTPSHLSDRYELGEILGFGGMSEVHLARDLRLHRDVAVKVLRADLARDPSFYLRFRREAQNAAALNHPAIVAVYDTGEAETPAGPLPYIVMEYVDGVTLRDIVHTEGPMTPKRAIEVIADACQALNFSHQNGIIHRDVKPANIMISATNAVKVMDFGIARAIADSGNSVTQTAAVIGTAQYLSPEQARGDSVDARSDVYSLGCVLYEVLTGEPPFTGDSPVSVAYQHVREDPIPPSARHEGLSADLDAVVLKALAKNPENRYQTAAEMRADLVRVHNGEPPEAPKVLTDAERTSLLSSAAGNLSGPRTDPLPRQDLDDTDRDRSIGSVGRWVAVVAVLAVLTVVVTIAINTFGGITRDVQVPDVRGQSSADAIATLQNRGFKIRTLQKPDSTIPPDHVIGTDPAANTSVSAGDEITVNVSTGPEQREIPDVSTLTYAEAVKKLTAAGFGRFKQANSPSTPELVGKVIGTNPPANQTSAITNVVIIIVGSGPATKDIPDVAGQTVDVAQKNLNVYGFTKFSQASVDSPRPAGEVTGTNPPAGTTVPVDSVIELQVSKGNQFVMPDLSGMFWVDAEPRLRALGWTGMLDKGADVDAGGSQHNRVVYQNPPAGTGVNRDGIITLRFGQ
# Mast/stem cell growth factor receptor Kit (Homo sapiens), P10721 [D816H], sequence (P10721 whole entry D816H): as the sequence (P10721 whole entry) above, with D816H counted along it
structure (smiles),measurement,setting,value
O=C(NC[C@@H]1[C@H]2CN(C(=O)OCc3cc(C(F)(F)F)cc(C(F)(F)F)c3)C[C@@H]12)c1ccc2[nH]nnc2c1 [BI 2545],residual activity,[1],98%
same,residual activity,[2],100%
same,residual activity,[3],94%
same,residual activity,[4],87%
same,residual activity,[5],100%
same,residual activity,[6],98%
same,residual activity,[7],85%
same,residual activity,[8],95%
same,residual activity,[9],89%
same,residual activity,[10],100%
same,residual activity,[11],100%
same,residual activity,[12],77%
same,residual activity,[13],95%
same,residual activity,[14],93%
same,residual activity,[15],89%
same,residual activity,[16],100%
same,residual activity,[17],100%
same,residual activity,[18],100%
same,residual activity,[19],100%
same,residual activity,[20],90%
same,residual activity,[21],100%
same,residual activity,[22],100%
same,residual activity,[23],97%
same,residual activity,[24],75%
same,residual activity,[25],44%
same,residual activity,[26],100%
same,residual activity,[27],100%
same,residual activity,[28],75%
same,residual activity,[29],92%
same,residual activity,[30],93%
same,residual activity,[31],80%
same,residual activity,[32],89%
same,residual activity,[33],45%
same,residual activity,[34],100%
same,residual activity,[35],83%
same,residual activity,[36],100%
same,residual activity,[37],100%
same,residual activity,[38],79%
same,residual activity,[39],100%
same,residual activity,[40],93%
same,inhibition,[41],6.61%
same,inhibition,[42],21.6%
same,inhibition,[43],-9.34%
same,inhibition,[44],15.5%
same,inhibition,[45],14.2%
Cc1nccc(COC(=O)N2C[C@@H]3[C@@H](CNC(=O)c4ccc5[nH]nnc5c4)[C@@H]3C2)n1 [BI 3017],residual activity,[1],95%
same,residual activity,[2],91%
same,residual activity,[3],100%
same,residual activity,[4],82%
same,residual activity,[5],85%
same,residual activity,[6],84%
same,residual activity,[7],100%
same,residual activity,[8],100%
same,residual activity,[9],71%
same,residual activity,[10],78%
same,residual activity,[11],99%
same,residual activity,[12],90%
same,residual activity,[13],99%
same,residual activity,[14],89%
same,residual activity,[15],76%
same,residual activity,[16],93%
same,residual activity,[17],85%
same,residual activity,[18],93%
same,residual activity,[19],99%
same,residual activity,[20],79%
same,residual activity,[21],100%
same,residual activity,[22],95%
same,residual activity,[23],100%
same,residual activity,[24],100%
same,residual activity,[25],100%
same,residual activity,[26],88%
same,residual activity,[27],100%
same,residual activity,[28],100%
same,residual activity,[29],100%
same,residual activity,[30],100%
same,residual activity,[31],100%
same,residual activity,[32],82%
same,residual activity,[33],100%
same,residual activity,[34],93%
same,residual activity,[35],87%
same,residual activity,[36],77%
same,residual activity,[37],96%
same,residual activity,[38],98%
same,residual activity,[39],100%
same,residual activity,[40],100%
same,inhibition,[41],1.07%
same,inhibition,[42],16.4%
same,inhibition,[43],-3.25%
same,inhibition,[44],-7.15%
same,inhibition,[45],16.1%
